Values after ≈ are worked out from the molar mass of the structure shown.
Columns and labels:
[1] = Unbound CSF-to-plasma concentration ratio in female Sprague-Dawley rat at 75 mg/kg, po administered as single dose; assay type: ADME, organism-based
[2] = molecular target: Protein arginine N-methyltransferase 5 (Homo sapiens) (UniProt O14744); assay: In vivo inhibition of PRMT5 in female athymic nude mouse xenografted with MTAP-deleted human U-87 MG cells assessed as decrease in SDMA level in tumor at 10 mg/kg, po administered once daily for 14 days and measured 2 to 8 hrs post last dose by ELISA relative to control; assay type: functional, organism-based; conditions: time 338-344 hrs
[3] = Antitumor activity against MTAP-deleted human U-87 MG cells xenografted in female athymic nude mouse model assessed as tumor growth inhibition at 300 mg/kg, po administered once daily for 14 days and measured 24 hrs post last dose relative to control; assay type: functional, U-87MG ATCC; conditions: 360 h, time 15 day, read-out: TGI
[4] = Unbound clearance in CD-1 mouse at 1 mg/kg, iv; assay type: ADME, organism-based; conditions: in vivo
BXPC-3 [5] = assay: Antitumor activity against MTAP-deleted human BXPC-3 cells xenografted in athymic nude mouse model assessed as tumor growth inhibition at 10 mg/kg, po administered once daily for 26 days and measured 24 hrs post last dose relative to control; assay type: functional; conditions: BXPC-3, 648 h, time 27 day, read-out: TGI
[6] = molecular target: Voltage-gated inwardly rectifying potassium channel KCNH2 (Homo sapiens, UniProt Q12809); assay: Inhibition of human ERG by QPatch clamp method
[7] = Toxicity in male rat up to 75 mg/kg, po administered as single dose for 14 days; assay type: organism-based; conditions: in vivo, 336 h, time 14 day
[8] = molecular target: T1, Nuclear receptor subfamily 1 group I member 2 (Homo sapiens, UniProt O75469); assay: Activation of human PXR in human HepG2 cells co-transfected with CYP3A4-luciferase at 10 uM incubated for 1 day relative to control; conditions: hepg2, 24 h
T1 sequence (O75469 whole entry): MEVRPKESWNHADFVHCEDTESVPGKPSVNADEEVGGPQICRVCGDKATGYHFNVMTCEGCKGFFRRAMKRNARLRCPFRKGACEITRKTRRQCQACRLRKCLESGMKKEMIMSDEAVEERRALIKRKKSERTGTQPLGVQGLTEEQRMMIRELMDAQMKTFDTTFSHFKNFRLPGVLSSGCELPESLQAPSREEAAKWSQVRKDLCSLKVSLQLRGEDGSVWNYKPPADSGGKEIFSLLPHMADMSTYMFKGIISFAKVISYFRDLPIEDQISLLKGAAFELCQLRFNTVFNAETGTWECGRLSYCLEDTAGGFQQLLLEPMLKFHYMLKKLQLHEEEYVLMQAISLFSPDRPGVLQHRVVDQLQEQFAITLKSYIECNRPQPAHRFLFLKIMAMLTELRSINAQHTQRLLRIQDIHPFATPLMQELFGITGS

[9] = molecular target: DNA (cytosine-5)-methyltransferase 1 (Homo sapiens) (UniProt P26358); assay: Activation of human DNMT1 at 10 uM relative to control
[10] = molecular target: Protein arginine N-methyltransferase 5 (Homo sapiens) (UniProt O14744); assay: In vivo inhibition of PRMT5 in athymic nude mouse xenografted with human HCT-116 cells harboring wildtype MTAP assessed as decrease in SDMA level in tumor at 10 mg/kg, po administered once daily for 4 days and measured 4 hrs post last dose by ELISA relative to control; assay type: functional, organism-based; conditions: time 4.0 day
[11] = Unbound CSF-to-plasma concentration ratio in male Sprague-Dawley rat at 75 mg/kg, po administered as single dose; assay type: ADME, organism-based
[12] = Toxicity in female athymic nude mouse xenografted with human HCT-116 cells harboring wildtype MTAP assessed as body weight change at 3 to 100 mg/kg, po administered once daily for 14 days; assay type: organism-based; conditions: in vivo, 336 h, dose 3-100 mg/kg, time 14 day
[13] = Unbound brain-to-plasma concentration ratio in female Sprague-Dawley rat at 75 mg/kg, po administered as single dose; assay type: ADME, organism-based; conditions: read-out: K(p,uu,brain)
[14] = Drug uptake in plasma of athymic nude mouse xenografted with MTAP-deleted human BXPC-3 cells at 10 to 100 mg/kg, po administered once daily for 26 days and measured 24 hrs post last dose by LC-SRM/MS analysis; assay type: ADME, organism-based; conditions: in vivo, 648 h, dose 10-100 mg/kg, time 27 day
[15] = Metabolic stability in human liver microsomes assessed as intrinsic clearance at 0.5 uM incubated for 40 mins in presence of NADPH; assay type: ADME, Microsome; conditions: read-out: CLH
[16] = Metabolic stability in mouse liver microsomes assessed as intrinsic clearance at 0.5 uM incubated for 40 mins in presence of NADPH; assay type: ADME, Microsome; conditions: read-out: CLH
[17] = Clearance in Sprague-Dawley rat at 0.5 mg/kg, iv; conditions: in vivo
[18] = Toxicity in athymic nude mouse xenografted with MTAP-deleted human BXPC-3 cells assessed as effect on body weight at 10 to 100 mg/kg, po administered once daily for 26 days; assay type: organism-based; conditions: in vivo, 624 h, dose 10-100 mg/kg, time 26 day
BXPC-3 [19] = assay: Antiproliferative activity against human BXPC-3 cells assessed as effect on cell viability; assay type: functional, cell-based
[20] = Unbound brain-to-plasma concentration ratio in male Sprague-Dawley rat at 25 mg/kg, po administered as single dose; assay type: ADME, organism-based; conditions: read-out: K(p,uu,brain)
in vivo = conditions: Sprague-Dawley, rat, po, 2 mg/kg, pH 2
[21] = Protein binding in rat plasma assessed as unbound fraction by ultracentrifugation
Cytochrome P450 3A4 = Cytochrome P450 3A4 (Homo sapiens, UniProt P08684); assay: Inhibition of CYP3A4 (unknown origin)
[22] = molecular target: Protein arginine N-methyltransferase 5 (Homo sapiens) (UniProt O14744); assay: In vivo inhibition of PRMT5 in female athymic nude mouse xenografted with MTAP-deleted human U-87 MG cells assessed as decrease in SDMA level in tumor at 30 mg/kg, po administered once daily for 14 days and measured 2 to 8 hrs post last dose by ELISA relative to control; assay type: functional, organism-based; conditions: time 338-344 hrs
[23] = molecular target: Protein arginine N-methyltransferase 5 (Homo sapiens) (UniProt O14744); assay: Binding affinity to PRMT5 (unknown origin) assessed as occupancy in presence of MTA by SPR analysis relative to control
[24] = Solubility of compound in Hcl buffer at pH 2.0
[25] = molecular target: Protein arginine N-methyltransferase 5 (Homo sapiens) (UniProt O14744); assay: In vivo inhibition of PRMT5 in athymic nude mouse xenografted with MTAP-deleted human HCT-116 cells assessed as decrease in SDMA level in tumor at 10 mg/kg, po administered once daily for 4 days and measured 4 hrs post last dose by ELISA relative to control; assay type: functional, organism-based; conditions: time 4.0 day
[26] = Unbound CSF-to-plasma concentration ratio in male Sprague-Dawley rat at 25 mg/kg, po administered as single dose; assay type: ADME, organism-based
[27] = molecular target: Protein arginine N-methyltransferase 5 (Homo sapiens) (UniProt O14744); assay: In vivo inhibition of PRMT5 in athymic nude mouse xenografted with human HCT-116 cells harboring wildtype MTAP assessed as decrease in SDMA level in tumor at 3 mg/kg, po administered once daily for 4 days and measured 4 hrs post last dose by ELISA relative to control; assay type: functional, organism-based; conditions: time 4.0 day
[28] = molecular target: Protein arginine N-methyltransferase 5 (Homo sapiens) (UniProt O14744); assay: In vivo inhibition of PRMT5 in athymic nude mouse xenografted with MTAP-deleted human HCT-116 cells assessed as decrease in SDMA level in tumor at 30 mg/kg, po administered once daily for 4 days and measured 4 hrs post last dose by ELISA relative to control; assay type: functional, organism-based; conditions: time 4.0 day
[29] = Unbound brain-to-plasma concentration ratio in female Sprague-Dawley rat at 25 mg/kg, po administered as single dose; assay type: ADME, organism-based; conditions: read-out: K(p,uu,brain)

Protein arginine N-methyltransferase 5 (Homo sapiens), sequence (O14744 whole entry): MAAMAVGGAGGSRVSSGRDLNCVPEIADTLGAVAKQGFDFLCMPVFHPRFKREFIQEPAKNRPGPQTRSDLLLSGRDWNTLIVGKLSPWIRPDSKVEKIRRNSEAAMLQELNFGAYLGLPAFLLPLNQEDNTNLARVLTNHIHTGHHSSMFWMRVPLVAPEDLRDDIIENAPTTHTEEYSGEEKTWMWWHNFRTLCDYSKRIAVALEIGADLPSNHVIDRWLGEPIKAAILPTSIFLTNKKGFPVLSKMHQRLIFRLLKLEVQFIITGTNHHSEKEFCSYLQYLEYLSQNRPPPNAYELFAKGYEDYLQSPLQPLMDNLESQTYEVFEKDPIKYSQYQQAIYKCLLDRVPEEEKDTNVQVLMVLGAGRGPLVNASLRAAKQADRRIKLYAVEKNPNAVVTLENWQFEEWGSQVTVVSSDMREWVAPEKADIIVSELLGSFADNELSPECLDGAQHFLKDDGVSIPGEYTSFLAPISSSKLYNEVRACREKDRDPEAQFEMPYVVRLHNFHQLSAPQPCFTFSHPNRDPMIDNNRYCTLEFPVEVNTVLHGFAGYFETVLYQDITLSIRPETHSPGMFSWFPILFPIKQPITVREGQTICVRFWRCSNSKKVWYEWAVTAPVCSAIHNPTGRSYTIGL
DNA (cytosine-5)-methyltransferase 1 (Homo sapiens), sequence (P26358 whole entry): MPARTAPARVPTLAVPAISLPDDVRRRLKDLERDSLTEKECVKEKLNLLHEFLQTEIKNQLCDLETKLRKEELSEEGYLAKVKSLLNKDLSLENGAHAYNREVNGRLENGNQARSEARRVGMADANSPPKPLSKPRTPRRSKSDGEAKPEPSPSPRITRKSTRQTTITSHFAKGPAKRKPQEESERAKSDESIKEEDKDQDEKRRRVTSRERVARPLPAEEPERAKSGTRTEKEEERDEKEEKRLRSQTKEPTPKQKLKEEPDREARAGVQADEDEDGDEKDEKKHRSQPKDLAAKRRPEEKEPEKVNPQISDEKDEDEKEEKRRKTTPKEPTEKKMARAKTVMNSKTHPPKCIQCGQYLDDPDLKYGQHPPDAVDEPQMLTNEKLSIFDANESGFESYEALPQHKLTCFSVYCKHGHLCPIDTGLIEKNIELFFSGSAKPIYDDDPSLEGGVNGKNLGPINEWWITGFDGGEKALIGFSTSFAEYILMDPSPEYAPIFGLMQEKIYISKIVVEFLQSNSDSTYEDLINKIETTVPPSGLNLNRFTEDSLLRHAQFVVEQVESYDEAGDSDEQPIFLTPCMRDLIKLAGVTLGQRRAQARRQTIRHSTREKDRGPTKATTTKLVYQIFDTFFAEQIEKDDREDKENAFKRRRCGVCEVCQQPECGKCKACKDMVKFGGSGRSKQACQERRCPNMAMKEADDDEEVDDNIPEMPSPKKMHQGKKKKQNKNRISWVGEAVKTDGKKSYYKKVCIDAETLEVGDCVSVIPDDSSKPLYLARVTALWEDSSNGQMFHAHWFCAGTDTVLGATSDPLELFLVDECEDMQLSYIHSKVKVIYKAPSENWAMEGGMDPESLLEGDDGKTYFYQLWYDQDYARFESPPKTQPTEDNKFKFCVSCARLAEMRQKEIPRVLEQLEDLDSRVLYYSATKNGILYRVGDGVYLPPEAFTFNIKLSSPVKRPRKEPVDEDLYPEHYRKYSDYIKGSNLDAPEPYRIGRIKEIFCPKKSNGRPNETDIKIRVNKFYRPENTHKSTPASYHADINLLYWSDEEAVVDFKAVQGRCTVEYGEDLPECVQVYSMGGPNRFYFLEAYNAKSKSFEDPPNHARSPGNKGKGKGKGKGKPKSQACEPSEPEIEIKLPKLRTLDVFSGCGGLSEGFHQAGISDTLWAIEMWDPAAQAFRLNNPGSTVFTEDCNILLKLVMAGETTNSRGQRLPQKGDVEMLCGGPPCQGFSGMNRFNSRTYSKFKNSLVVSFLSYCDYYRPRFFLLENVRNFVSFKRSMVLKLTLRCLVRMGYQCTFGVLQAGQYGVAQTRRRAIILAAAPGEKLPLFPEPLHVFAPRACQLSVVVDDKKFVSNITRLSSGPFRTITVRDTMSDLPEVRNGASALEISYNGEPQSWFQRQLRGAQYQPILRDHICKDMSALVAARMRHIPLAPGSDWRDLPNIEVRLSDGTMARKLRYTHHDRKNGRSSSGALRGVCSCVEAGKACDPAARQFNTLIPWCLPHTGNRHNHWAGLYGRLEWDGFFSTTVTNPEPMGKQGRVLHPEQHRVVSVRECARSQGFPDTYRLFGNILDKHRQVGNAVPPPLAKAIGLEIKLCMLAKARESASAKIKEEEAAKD
Voltage-gated inwardly rectifying potassium channel KCNH2, sequence (Q12809 whole entry): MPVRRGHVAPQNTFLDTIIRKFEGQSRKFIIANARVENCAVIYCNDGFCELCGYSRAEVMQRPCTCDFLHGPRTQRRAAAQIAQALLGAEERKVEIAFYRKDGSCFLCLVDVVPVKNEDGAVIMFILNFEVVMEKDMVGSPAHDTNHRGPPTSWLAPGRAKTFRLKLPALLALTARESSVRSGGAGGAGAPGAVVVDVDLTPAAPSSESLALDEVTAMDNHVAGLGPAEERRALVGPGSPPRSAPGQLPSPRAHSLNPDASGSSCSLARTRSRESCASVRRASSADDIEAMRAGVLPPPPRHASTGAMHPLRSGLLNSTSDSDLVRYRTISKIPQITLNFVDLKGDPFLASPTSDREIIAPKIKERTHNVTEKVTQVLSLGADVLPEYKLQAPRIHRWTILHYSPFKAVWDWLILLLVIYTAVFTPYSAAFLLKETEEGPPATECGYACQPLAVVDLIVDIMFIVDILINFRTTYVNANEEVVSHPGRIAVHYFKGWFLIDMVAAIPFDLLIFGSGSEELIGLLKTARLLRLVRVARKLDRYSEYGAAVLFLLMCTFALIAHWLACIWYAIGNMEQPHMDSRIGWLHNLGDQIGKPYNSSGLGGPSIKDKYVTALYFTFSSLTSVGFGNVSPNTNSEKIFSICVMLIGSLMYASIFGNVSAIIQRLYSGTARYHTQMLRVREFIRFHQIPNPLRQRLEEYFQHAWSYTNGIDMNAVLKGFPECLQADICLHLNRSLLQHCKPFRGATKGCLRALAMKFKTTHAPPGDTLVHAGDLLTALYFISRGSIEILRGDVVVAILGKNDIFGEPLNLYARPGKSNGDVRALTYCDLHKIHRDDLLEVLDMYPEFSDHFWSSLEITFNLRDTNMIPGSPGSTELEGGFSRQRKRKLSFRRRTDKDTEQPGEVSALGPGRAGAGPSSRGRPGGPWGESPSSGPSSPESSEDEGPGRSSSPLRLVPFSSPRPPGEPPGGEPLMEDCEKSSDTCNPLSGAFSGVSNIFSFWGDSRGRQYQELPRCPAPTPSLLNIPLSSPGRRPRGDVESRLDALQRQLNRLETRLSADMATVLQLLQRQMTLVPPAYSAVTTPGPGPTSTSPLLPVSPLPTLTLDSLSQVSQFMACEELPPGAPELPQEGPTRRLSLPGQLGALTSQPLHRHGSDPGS
Cytochrome P450 3A4, sequence (P08684 whole entry): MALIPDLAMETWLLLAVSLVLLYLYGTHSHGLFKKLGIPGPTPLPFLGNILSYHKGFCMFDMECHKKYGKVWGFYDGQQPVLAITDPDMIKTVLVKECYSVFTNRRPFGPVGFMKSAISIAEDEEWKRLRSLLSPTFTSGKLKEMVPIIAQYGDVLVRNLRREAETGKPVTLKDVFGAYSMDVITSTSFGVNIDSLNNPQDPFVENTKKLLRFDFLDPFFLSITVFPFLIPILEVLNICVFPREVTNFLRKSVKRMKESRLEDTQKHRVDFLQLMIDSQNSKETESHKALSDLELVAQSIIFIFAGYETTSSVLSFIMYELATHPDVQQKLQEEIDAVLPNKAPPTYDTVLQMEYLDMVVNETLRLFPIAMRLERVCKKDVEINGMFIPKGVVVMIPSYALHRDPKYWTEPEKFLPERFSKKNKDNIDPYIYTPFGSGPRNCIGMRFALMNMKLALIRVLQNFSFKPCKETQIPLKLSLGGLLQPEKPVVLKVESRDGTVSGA

In the case of `Nc1nc2cnc(C(=O)N3CCOC[C@@H]3c3ccc(C(F)(F)F)cc3)cc2c2c1COC2`, the Kp uu [1] is reported as 0.2, the inhibition [2] is reported as 68% and the inhibition in vivo at 300 mg/kg [3] is reported as 88%. It also gave a CL free [4] of 142 mL/min/kg, an inhibition in vivo at 10 mg/kg (BXPC-3 [5]) of 19% and an IC50 [6] of over 30 µM. The Activity [7] was “Non-toxic”, the Activity [8] was under 20% and the Activity [9] was 32%. For the same molecule, the inhibition [10] was 32%, the Kp uu [11] was 0.13 and the Activity [12] was “Non-toxic”. The Kp uu [13] was 0.12, the Drug uptake [14] was “Active” and the microsomal CLint at 0.5 µM [15] was 24 µL/min/mg. The microsomal CLint at 0.5 µM [16] was 37 µL/min/mg, the clearance [17] was 28.3 mL/min/kg and the Activity [18] was “Non-toxic”. The IC50 (BXPC-3 [19]) was 0.218 µM, the Kp uu [20] was 0.15 and the bioavailability (in vivo) was 60%. For the same molecule, the fraction unbound [21] was 0.1, the IC50 (Cytochrome P450 3A4) was 124 µM and the inhibition [22] was 77%. The Occ [23] was 70%, the solubility [24] was 492 µM (≈ 219 µg/mL) and the inhibition [25] was 73%. The Kp uu [26] was 0.24, the inhibition [27] was 12% and the inhibition [28] was 72%. For the same molecule, the Kp uu [29] was 0.14.

Source: ChEMBL document CHEMBL6109134, “Discovery of AMG 193, an MTA-Cooperative PRMT5 Inhibitor for the Treatment of MTAP-Deleted Cancers” (J Med Chem, 2025)
